Assay results: US20130210846A1, “USE OF NOVEL PAN-CDK INHIBITORS FOR TREATING TUMORS” (BAYER INTELLECTUAL PROPERTY GMBH, priority 2010, published 2013)
Values belong to the compound of their own block, whether it stands above or below them.

How the values were obtained:
A2780-Cis = assay: Proliferation assay A2780-Cis; type: cell-based; conditions: Homo sapiens, A2780cis, 96 h, ovarial carcinoma, 4 days, crystal violet
Procedure: (§1) Cultivated human tumor cells (originally obtained from ATCC, HeLa-MaTu and HeLa-MaTu-ADR, originally obtained from Epo GmbH, Berlin, Germany) were plated at a density of 1000 to 5000 cells/measuring point, depending on the growth rate of the cell line, in a 96-well multititer plate in 200 μl of growth medium (DMEM/HAMS F12, 2 mM L-glutamine, 10% fetal calf serum). After 24 hours the cells of one plate (zero-point plate) were stained with crystal violet (see below), whereas the medium of the other plates was replaced with fresh culture medium (200 μl), to which the test substances had been added at various concentrations (0 μM, and in the range 0.01-30 μM; the final concentration of the solvent dimethyl sulfoxide was 0.5%). The cells were incubated for 4 days in the presence of the test substances. Cellular proliferation was determined by staining the cells with crystal violet: the cells were fixed by adding 20 μl/measuring point of an 11% glutaraldehyde solution for 15 min at room temperature. […] The extinction was determined photometrically at a wavelength of 595 nm. The percentage change in cell growth was calculated by standardization of the measured values to the extinction values of the zero-point plate (=0%) and the extinction of the untreated (0 μM) cells (=100%). […] The IC50 values were determined by means of a 4-parameter fit using the company's own software. […]

A375 = assay: Proliferation assay A375; type: cell-based; conditions: Homo sapiens, A-375, 96 h; A375, skin: melanoma; 4 days, crystal violet
Procedure: as §1

MOLM-13 = assay: Proliferation assay MOLM-13; type: cell-based; conditions: Homo sapiens, 96 h; MOLM-13, leukemia; 4 days, crystal violet
Procedure: as §1

HeLa-MaTu = assay: Proliferation assay HeLa-MaTu; type: cell-based, human; conditions: Homo sapiens, 96 h, cervix carcinoma, 4 days, crystal violet
Summary of the method: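 Crystal violet absorbance (595 nm) after 4-day compound exposure; cells in DMEM/HAMS F12, 10% FCS, 2 mM glutamine, 1000–5000 cells/well. Dose range 0.01–30 μM, 0.5% DMSO final. Normalised to untreated (0% inhibition) and day-0 plate (100%); IC50 via 4-parameter fit.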

[1] = tested on: HCT116 human colorectal tumor cells; assay: HCT116 human colorectal xenograft model; type: in vivo, female NMRI nude mice
From the text: (§2) Tumor cells grown in cell culture were implanted subcutaneously in the flank of female or male NMRI nude mice. The treatment was started as soon as the tumors had grown to a size of approx. 20 mm^2 The study was ended as soon as the tumors in one of the groups reached a size of approx. 150 mm^2.
(§3) Vehicle group: treatment with solubilizer (40% PEG400/60% water)
(§4) The studies were designed for determining the initial response of the human tumor model to the treatment with the Exemplary compound 2-SI-2. Tumor growth inhibition in percent (TGI) was either calculated at the end of the studies from the tumor weights (TGITW) using the formula 100×[1−(tumor weight of the treatment group/tumor weight of the vehicle group)], or on the day the vehicle group had to be ended from the tumor areas (TGITA) using the formula 100×[1−(tumor area of the treatment group on the day of the measurement−tumor area of the treatment group prior to treatment)/(tumor area of the vehicle group on the day of the measurement−tumor area of the vehicle group prior to treatment)]. In the case of a tumor growth inhibition of more than 50%, the treatment was considered to have been effective.
Efficacy in the HCT116 human colorectal xenograft model.
HCT116 human colorectal tumor cells implanted into female NMRI nude mice.
• a) 0.15 mg/ml, 0.20 mg/ml of Example 2-SI-2 in 40% (v/v) PEG 400 in water • b) 0.20 mg/ml, 0.25 mg/ml of Example 2-SI-2 in 40% (v/v) PEG 400 in water • c) 0.40 mg/ml, 0.50 mg/ml, 0.60 mg/ml of Example 2-SI-2 in 40% (v/v) PEG 400 in water
• a) 1.5 and 2.0 mg/kg (4.5 and 6.0 mg/m^2), 1× per day. • b) 2.0 and 2.5 mg/kg (6.0 and 7.5 mg/m^2), 2× per day on 2 successive days, followed by 5 treatment-free days. • c) 4.0 to 6.0 mg/kg (12 to 18 mg/m^2), 1× per day on 2 successive days, followed by 5 treatment-free days.

[2] = tested on: HeLa-MaTu human cervix carcinoma cells; assay: HeLa-MaTu human cervix carcinoma xenograft model; type: in vivo, female NMRI nude mice
From the text: as §2, §3, §4
Efficacy in the HeLa-MaTu human cervix carcinoma xenograft model
HeLa-MaTu human cervix carcinoma cells implanted into female NMRI nude mice
• a) 0.05 mg/ml, 0.10 mg/ml, 0.15 mg/ml, 0.2 mg/ml of Example 2-SI-2 in 40% (v/v) PEG 400 in water • b) 0.15 mg/ml, 0.2 mg/ml, 0.25 mg/ml of Example 2-SI-2 in 40% (v/v) PEG 400 in water
• a) 0.5 to 2.0 mg/kg (1.5 to 6.0 mg/m^2) 1× per day b) 1.5 to 2.5 mg/kg (4.5 to 7.5 mg/m^2) 2× per day on 2 successive days, followed by 5 treatment-free days

[3] = tested on: NCI-H69 human small-cell lung tumor cells; assay: NCI-H69 human small-cell lung tumor model; type: in vivo, female NMRI nude mice
From the text: as §2, §3, §4
Efficacy in the NCI-H69 human small-cell lung tumor model.
NCI-H69 human small-cell lung tumor cells implanted into female NMRI nude mice. […]

[4] = HCT116; b) 2.5 mg/kg oral 2× per day on 2 successive days, followed by 5 treatment-free days
[5] = HeLa-MaTu; b) 2.5 mg/kg oral 2× per day on 2 successive days, followed by 5 treatment-free days

IC50 (A2780-Cis): 0.01 µM | IC50 (A375): 0.015 µM | IC50 (MOLM-13): 0.009 µM
SMILES: C[C@@H](O)[C@@H](C)Oc1nc(Nc2ccc(S(C)(=N)=O)cc2)ncc1C(F)(F)F (single isomer, unassigned) [Example 2-SI-2]

IC50 (HeLa-MaTu): 0.01 µM
SMILES: C[C@@H](O)[C@@H](C)Nc1nc(Nc2ccc(S(=N)(=O)C3CC3)cc2)ncc1C(F)(F)F (mixture of isomers) [Example 4-SI-1, (RS)—S-Cyclopropyl-S-(4-{[4-{[(1R,2R)-2-hydroxy-1-methylpropyl]amino}-5-(trifluoromethyl)-pyrimidin-2-yl]amino}phenyl)sulfoximide]

SMILES: C[C@@H](O)[C@@H](C)Oc1nc(Nc2ccc(S(C)(=N)=O)cc2)ncc1C(F)(F)F (mixture of isomers) [Example 2-SI-2, (RS)—S-(4-{[4-{[(1R,2R)-2-Hydroxy-1-methylpropyl]oxy}-5-(trifluoromethyl)pyrimidin-2-yl]-amino}phenyl)-S-methylsulfoximide]
TGITW (tumor growth inhibition from tumor weights) ([1]; HCT116; a) 2.0 mg/kg oral 1× per day): 67% | TGITW (tumor growth inhibition from tumor weights) [1, 4]: 57% | tumor regression observation [1, 4]: signs of tumor regression | TGITW (tumor growth inhibition from tumor weights) ([1]; HCT116; c) 5.0 mg/kg oral 1× per day on 2 successive days, followed by 5 treatment-free days): 83% | TGITW (tumor growth inhibition from tumor weights) ([2]; HeLa-MaTu; a) 2.0 mg/kg oral 1× per day): 97% | TGITW (tumor growth inhibition from tumor weights) [2, 5]: 98% | tumor regression observation [2, 5]: signs of tumor regression | TGITA (tumor growth inhibition from tumor areas, measured on the day the vehicle group was ended) ([3]; NCI-H69; a) 2.0 mg/kg oral 1× per day): 99% | TGITA (tumor growth inhibition from tumor areas) ([3]; NCI-H69; b) 2.5 mg/kg oral 2× per day on 2 successive days, followed by 5 treatment-free days): 110%
